Reference: patent publication US20150291517A1, “BENZENESULFONAMIDE COMPOUNDS FOR SOMATIC EMBRYOGENESIS IN PLANTS” (priority 2012, published 2015)

How the values were obtained:
Type in all cases: in vivo, Arabidopsis thaliana
Arabidopsis seedlings [1] = experiment: Somatic embryogenesis from germinated Arabidopsis seeds in liquid medium with 1 μM 2,4-D (containers)
Text: The chemical screen was based on a modified version of an Arabidopsis somatic embryogenesis protocol that uses germinated seeds as explants (see Kobayashi et al., 2010 Kobayashi T, Nagayama Y, Higashi K and Kobayashi M. (2010). Establishment of a tissue culture system for somatic embryogenesis from germinating embryos of Arabidopsis thaliana Plant Biotech. 27: 359-364). In the original protocol, seeds were germinated on solid medium for one day, then the embryos were removed from the seed coat and transferred to solid media containing 4.5 μM 2,4-D to stimulate somatic embryo development. In this example, the protocol is simplified by germinating and culturing the seeds continuously in liquid medium containing 1 μM 2,4-D. Under optimized culture conditions (circa 30 seeds in 30 ml medium in 100 ml containers) approximately 18% of Col0 seeds form somatic embryos.
Approximately 10 surface-sterilized Columbia (Col-0) seeds were added to each well. The seeds were stratified at 4° C. in the dark for two days and then grown in on a rotary shaker (100 rpm/min) on a 16 h/8 h day/night cycle at 25° C. The number of seedlings that formed somatic embryos was counted two weeks later. Candidate compounds identified in the first screen were reordered (Chembridge or Maybridge), and re-tested in a second screen under the same conditions as the primary screen, but with a larger sample number (one 96-well microtitre plate/compound). Positive compounds were analysed using ChemMine (http//bioweb.ucr.edu/ChemMineV2/), ChemSpider (http//www.chemsider.com/) and the ZINC database (http://zinc.docking.org) for analogues with a known biological function.
All subsequent experiments were performed under the conditions described above, but using 100 ml containers (Greiner) containing 30 ml of medium media using approximately 30 seeds/container. All hormones were ordered from Duchefa and Dicamba from Sigma-Aldrich.

Arabidopsis seedlings [2] = experiment: NAA induced somatic embryogenesis with or without C#3
Description: The ability of C#3 to enhance embryogenesis in the presence of other auxins was tested; namely the synthetic auxin naphthalene-1-acetic acid (NAA). […] C#3 therefore enhances the developmental responses that are activated by auxin treatment. Compound C#3 is therefore able to potentiate the effect of other auxins.

germinating seeds = experiment: Developmental competence: C#3 added at different time points after start of culture
Description: The competence of an explant for in vitro regeneration is determined for a large part by its developmental state. The developmental competence of germinating seedlings to respond to C#3 was examined by adding C#3 at different time points after the start of culture. Seeds were stratified at 4° C. in media containing 1 μM 2,4-D. 25 μM C#3 or the equivalent volume of DMSO (control) was added to the media at different time points after the cultures were transferred to 25° C. The number of seedlings with somatic embryos was determined after two weeks of culture.

Arabidopsis seedlings [3] = experiment: Time course of somatic embryo development, morphology and ENOD4L::GFP / LEC1::LEC1:GFP embryo markers
Description: The effect of the compounds on seedlings, without 2,4-D, was tested by germinating seedlings on MS10 solidified with 1% agar, and supplemented with 25 μM compound or DMSO. The ENOD4L promoter comprises a 1035 bp promoter from Brassica napus (AB098076.1), which was cloned in front of green fluorescent protein (GFP). A 3110 bp DNA fragment comprising 1292 bp upstream of the LEC1 translational start site and the entire LEC1 protein coding region was cloned in front of green fluorescent protein (GFP). These vectors were transformed to Arabidopsis ecotype Columbia (Col-0).
Control and C#3-treated cultures were examined at different time points in their development to determine the effect of C#3 on the course of somatic embryo development. Differences between the control and C#3-treated cultures were visible at about four days of culture. The epidermal and cortex cells of the root elongation zone and hypocotyl in the control seedlings increased in size, but not in the C#3-treated seedlings. On the sixth day of culture the differences between the two cultures was more pronounced. […] Callus was present on the tips of the cotyledons in circa 10% of the control seedlings, and up to 70% of the C#3 treated seedlings. This callus comprised loose, large cells on the outside, and smaller, denser cells on the on inside.
The timing and location of somatic embryo formation in control and compound-treated cultures was examined in more detail using two early embryo expressed marker genes, ENOD4-like (ENOD4L::GFP), and LEAFY COTYLEDON1 (LEC1::LEC1:GFP). Expression of ENOD4L::GFP and LEC1:GFP in zygotic embryos was observed from the zygote- and two-celled embryo proper stage onward, respectively. […] The GFP-positive sectors increased in size over the next few days, and on the sixth day of culture, GFP-positive globular embryos could be distinguished. The only difference between the C#3-treated and control cultures with respect to embryo marker expression was the number of seedlings displaying GFP fluorescence, which was higher in the C#3-treated cultures.

Arabidopsis seedlings [4] = experiment: Somatic embryo formation at 0 to 2 μM 2,4-D with or without C#3
Text: 2,4-D is widely used to induce somatic embryogenesis from plant explant. In Arabidopsis immature zygotic embryos occasionally form somatic embryos when grown in basal medium, while germinating embryos or other vegetative tissues are unable to form embryos. […] Compound #3 therefore potentiates the effect of auxin 2,4-D. As shown in the micrograph in FIG. 7B, at the lowest effective concentration of C#3, areas of dense, light green embryogenic tissue (arrows) were formed, rather than histodifferentiated, bipolar somatic embryos.

[5] = 25 μM compound, 1 μM 2,4-D, FIG. 1

## O=C(O)COc1ccc(Cl)cc1Cl [2,4-D, 2,4 dichlorophenoxyacetic acid, reference compound]
Arabidopsis seedlings [1]; 1 μM 2,4-D alone, Col0, circa 30 seeds in 30 ml medium
  seeds forming somatic embryos: approximately 18%

## Cc1ccccc1N(C)S(=O)(=O)c1ccc(Cl)cc1 [C#3, 4-chloro-N-methyl-N-(2-methylphenyl)benzenesulfonamide]
Arabidopsis seedlings [2]; 25 μM C#3 with 10 μM NAA
  effect on NAA induced somatic embryogenesis: enhanced
Arabidopsis seedlings [1]; [5]
  level of SE, percentage of seedlings with somatic embryos, compared to control of 1 μM 2,4-D alone: significantly increases the level of SE
  potency as inducer of SE: particularly potent inducers
Arabidopsis seedlings [1]; 10 to 50 μM C#3, 1 μM 2,4-D, control circa 20%
  seedlings with somatic embryo development: approximately 70%
Arabidopsis seedlings [1]; ecotypes other than Col0
  number of somatic embryo-producing seedlings in different Arabidopsis ecotypes: enhanced the number of somatic embryo-producing seedlings
Arabidopsis seedlings [1]; in presence of 2,4-D
  rank of percentage of seedlings with somatic embryos among screened compounds: induced the highest percentage of seedlings with somatic embryos
Arabidopsis seedlings [1]; none to 50 μM, fixed 1 μM 2,4-D, FIG. 5
  level of SE with increasing concentrations of compound: increases the level of SE
Germinating seeds; 25 μM C#3, 1 μM 2,4-D, scored after two weeks, FIG. 6
  time of addition giving best response: within the first two days of culture
Germinating seeds; 25 μM C#3 added after four days of culture
  enhancement of somatic embryogenesis on late addition: reached control levels
Arabidopsis seedlings [3]; embryo marker expression
  number of seedlings displaying GFP fluorescence versus control: higher
Arabidopsis seedlings [3]; region of the shoot meristem
  first detection of ENOD4L::GFP and LEC1:GFP marker expression: starting from day four of culture
Arabidopsis seedlings [3]; sixth day of culture
  callus formation in root/hypocotyl region: formed a large, connected mass of vascular-derived callus
  cell loosening and detachment in hypocotyl and root: to a lesser extent than the control
Arabidopsis seedlings [3]; sixth day of culture, control circa 10%
  seedlings with callus on the tips of the cotyledons: up to 70%
Arabidopsis seedlings [3]; tenth day of culture
  number of embryogenic seedlings compared to control cultures: much higher
Arabidopsis seedlings [4]; 25 μM C#3, no 2,4-D, FIG. 7A
  somatic embryo formation in the absence of 2,4-D: not able to induce somatic embryo formation
Arabidopsis seedlings [4]; 25 μM C#3, up to 2 μM 2,4-D
  somatic embryo formation at all tested 2,4-D concentrations: did enhance somatic embryo formation

## O=C(O)Cc1cccc2ccccc12 [NAA, naphthalene-1-acetic acid, reference compound]
Arabidopsis seedlings [2]; 10 μM NAA, FIG. 8
  frequency of somatic embryogenesis with NAA alone: induced a low frequency of somatic embryogenesis
